Data as given in ChEMBL document CHEMBL1141964, “Molecular docking and 3D-QSAR on 2-(oxalylamino) benzoic acid and its analogues as protein tyrosine phosphatase 1B inhibitors” (Bioorg Med Chem Lett, 2005).

Target: T1, Tyrosine-protein phosphatase non-receptor type 1 (Homo sapiens, UniProt P18031)
T1 sequence (P18031 whole entry): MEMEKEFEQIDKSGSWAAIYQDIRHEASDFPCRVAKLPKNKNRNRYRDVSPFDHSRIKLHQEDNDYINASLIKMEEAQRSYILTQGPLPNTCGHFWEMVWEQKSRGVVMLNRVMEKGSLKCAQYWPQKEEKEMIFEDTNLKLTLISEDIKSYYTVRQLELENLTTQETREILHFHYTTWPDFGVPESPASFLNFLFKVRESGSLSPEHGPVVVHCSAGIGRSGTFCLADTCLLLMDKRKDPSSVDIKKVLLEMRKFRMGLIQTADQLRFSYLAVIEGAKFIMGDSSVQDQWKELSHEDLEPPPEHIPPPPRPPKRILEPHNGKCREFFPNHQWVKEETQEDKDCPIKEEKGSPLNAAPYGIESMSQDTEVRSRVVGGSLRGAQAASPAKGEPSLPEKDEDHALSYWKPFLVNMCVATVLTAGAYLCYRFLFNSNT
Assay: Binding affinity to PTP1B

O=C(O)C(=O)Nc1sc2c(c1C(=O)O)CCC1(C2)OCCO1
Ki: 2.2 µM
